Several values for one entry are separate records, joined by “and”; a condition that tells them apart may be missing. Equal entries are not always repeated. Entries after “also recorded” stand apart in the source; their conditions may differ.
How the values were obtained:
[1] = tested on: HeLa cells overexpressing full-length JARID1B; experiment: H3K4me3 immunofluorescence in cells overexpressing 3xHA-JARID1B; format: cell-based; details: 10 μM or 30 μM, 24 hours
Description: pcDNA3.1(−)-3×HA-JARID1B construct was generated by inserting 3×HA-JARID1B between BamHI and XbaI of pcDNA3.1(−) vector. MCF7 cells were plated on 12 mm circle coverslips in 24-well plates and transfected with pcDNA3.1(−)-3×HA-JARID1B in the presence of 0, 10 or 30 μM PBIT. After incubation for 24 hours, the cells were fixed, permeabilized, and stained with antibodies against HA and H3K4me3 for 2 hours. The coverslips were then incubated with anti-mouse Alexa-546 (Invitrogen, A-11003) and goat anti-rabbit Envision (Dako, K4002) for 1 hour. Cy5-Tyramide (Perkin Elmer, NEL775001KT) and 4,6-diamidino-2-phenylindole dihydrochloride (DAPI) (Biotium, 40011) were used to visualize 3×HA-tagged JARID1B and nuclei, respectively. The slides were sealed and analyzed under an Olympus fluorescence microscope.
To determine whether JARID1B could be inhibited by PBIT in cells, HeLa cells overexpressing full-length JARID1B were treated with 10 μM or 30 μM PBIT. As expected, in JARID1B transfected cells, the levels of H3K4me3 decreased dramatically compared with untransfected cells (FIG. 5).

JARID1A = target: T1, JARID1A (Homo sapiens, UniProt P29375); experiment: FLAG-JARID1A histone demethylase assay with AlphaScreen detection (HTS and dose response); format: biochemical
T1 construct: the high-throughput screen of the invention utilizes full length JARID1A or JARID1B; FLAG (N); made in house; host or cells: Sf21 insect cells (baculovirus)
Description: Histone demethylase assays were performed in 384 well white plates (Corning 3574). Demethylase buffer conditions for FLAG-JARID1B were as follows: 10 μM α-KG, 100 μM ascorbate, 50 μM (NH4)2Fe(SO4)2, 50 mM Hepes (pH 7.5), 0.01% (v/v) Tween 20, and 0.1% (w/v) bovine serum albumin. The demethylase reactions included 64 nM bio-H3K4me3 peptide alone or in the presence of 4 nM FLAG-JARID1B enzyme in a 10 μl reaction at 25° C. for 30 minutes. As a positive control, 64 nM bio-H3K4me2 peptide was assayed in the absence of enzyme. Assay conditions for FLAG-JARID1C is the same as for FLAG-JARID1B except that 20 nM enzyme was used. For FLAG-JARID1A, the demethylase buffer was similar to FLAG-JARID1B, except that 125 μM α-KG and 13 nM FLAG-JARID1A enzyme were used. The His-FLAG-UTX and FLAG-JMJD3 demethylase assays also employed the same buffer conditions as for FLAG-JARID1B, with 64 nM bio-H3K27me3 peptide assayed with or without 25 nM His-FLAG-UTX enzyme or 50 nM FLAG-JMJD3 (BPS Bioscience, 50115), and 64 nM bio-H3K27me2 peptide as a positive control. JARID1A, JARID1C, UTX, and JMJD3 histone demethylase assays proceeded at 37° C. for 1 hour.
The AlphaScreen General IgG (Protein A) detection kit was obtained from PerkinElmer. Demethylated H3K4 products were detected using AlphaScreen antibody/bead mix containing 7.5 mM ethylenediaminetetraacetic acid (EDTA) and 0.15 μg/ml anti-H3K4me1 antibody in a final volume of 20 μl. For detection of demethylated H3K27 products, the AlphaScreen antibody/bead mix containing 7.5 mM EDTA and 0.15 μg/ml anti-H3K27me2 antibody in a final volume of 20 μl. The luminescence signal was measured using the Envision (PerkinElmer) or Pherastar (BMG Labtech) Platereaders.
FLAG-JARID1A was screened against 9,600 compounds. These compound libraries were from the Yale Center for Molecular Discovery. The libraries screened include the MicroSource Gen-Plus, MicroSource Pure Natural Products, NIH Clinical Collection, Enzo Epigenetics, and ChemBridge MW-Set libraries. Compounds dissolved in dimethyl sulfoxide (DMSO) were pintooled into a 384 well plate containing bio-H3K4me3 peptide in demethylase buffer to a final concentration of 20 μM. The reactions were initiated by the addition of 13 nM FLAG-JARID1A, and detected as described above. To eliminate the false positive hits, a counterscreen was performed against bio-H3K4me2 in the absence of enzyme.

[2] = tested on: SKBR3-R cells (trastuzumab resistant); experiment: WST-1 cell proliferation assay; format: cell-based; details: 30 μM
JMJD2E = target: T2, JMJD2E (Homo sapiens, UniProt B2RXH2); details: King et al., 2010; cited from earlier work
T2 sequence (B2RXH2 1-337 limits assumed): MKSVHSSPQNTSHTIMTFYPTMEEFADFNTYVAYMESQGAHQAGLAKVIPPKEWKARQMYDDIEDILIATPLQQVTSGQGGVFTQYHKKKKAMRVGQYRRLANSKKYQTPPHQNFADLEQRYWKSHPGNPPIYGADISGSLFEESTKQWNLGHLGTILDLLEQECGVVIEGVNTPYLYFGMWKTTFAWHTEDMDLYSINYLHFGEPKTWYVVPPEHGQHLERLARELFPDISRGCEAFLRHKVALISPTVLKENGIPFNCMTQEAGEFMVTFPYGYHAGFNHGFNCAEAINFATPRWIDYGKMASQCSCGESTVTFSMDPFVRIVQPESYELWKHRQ

T1 sequence (P29375 whole entry): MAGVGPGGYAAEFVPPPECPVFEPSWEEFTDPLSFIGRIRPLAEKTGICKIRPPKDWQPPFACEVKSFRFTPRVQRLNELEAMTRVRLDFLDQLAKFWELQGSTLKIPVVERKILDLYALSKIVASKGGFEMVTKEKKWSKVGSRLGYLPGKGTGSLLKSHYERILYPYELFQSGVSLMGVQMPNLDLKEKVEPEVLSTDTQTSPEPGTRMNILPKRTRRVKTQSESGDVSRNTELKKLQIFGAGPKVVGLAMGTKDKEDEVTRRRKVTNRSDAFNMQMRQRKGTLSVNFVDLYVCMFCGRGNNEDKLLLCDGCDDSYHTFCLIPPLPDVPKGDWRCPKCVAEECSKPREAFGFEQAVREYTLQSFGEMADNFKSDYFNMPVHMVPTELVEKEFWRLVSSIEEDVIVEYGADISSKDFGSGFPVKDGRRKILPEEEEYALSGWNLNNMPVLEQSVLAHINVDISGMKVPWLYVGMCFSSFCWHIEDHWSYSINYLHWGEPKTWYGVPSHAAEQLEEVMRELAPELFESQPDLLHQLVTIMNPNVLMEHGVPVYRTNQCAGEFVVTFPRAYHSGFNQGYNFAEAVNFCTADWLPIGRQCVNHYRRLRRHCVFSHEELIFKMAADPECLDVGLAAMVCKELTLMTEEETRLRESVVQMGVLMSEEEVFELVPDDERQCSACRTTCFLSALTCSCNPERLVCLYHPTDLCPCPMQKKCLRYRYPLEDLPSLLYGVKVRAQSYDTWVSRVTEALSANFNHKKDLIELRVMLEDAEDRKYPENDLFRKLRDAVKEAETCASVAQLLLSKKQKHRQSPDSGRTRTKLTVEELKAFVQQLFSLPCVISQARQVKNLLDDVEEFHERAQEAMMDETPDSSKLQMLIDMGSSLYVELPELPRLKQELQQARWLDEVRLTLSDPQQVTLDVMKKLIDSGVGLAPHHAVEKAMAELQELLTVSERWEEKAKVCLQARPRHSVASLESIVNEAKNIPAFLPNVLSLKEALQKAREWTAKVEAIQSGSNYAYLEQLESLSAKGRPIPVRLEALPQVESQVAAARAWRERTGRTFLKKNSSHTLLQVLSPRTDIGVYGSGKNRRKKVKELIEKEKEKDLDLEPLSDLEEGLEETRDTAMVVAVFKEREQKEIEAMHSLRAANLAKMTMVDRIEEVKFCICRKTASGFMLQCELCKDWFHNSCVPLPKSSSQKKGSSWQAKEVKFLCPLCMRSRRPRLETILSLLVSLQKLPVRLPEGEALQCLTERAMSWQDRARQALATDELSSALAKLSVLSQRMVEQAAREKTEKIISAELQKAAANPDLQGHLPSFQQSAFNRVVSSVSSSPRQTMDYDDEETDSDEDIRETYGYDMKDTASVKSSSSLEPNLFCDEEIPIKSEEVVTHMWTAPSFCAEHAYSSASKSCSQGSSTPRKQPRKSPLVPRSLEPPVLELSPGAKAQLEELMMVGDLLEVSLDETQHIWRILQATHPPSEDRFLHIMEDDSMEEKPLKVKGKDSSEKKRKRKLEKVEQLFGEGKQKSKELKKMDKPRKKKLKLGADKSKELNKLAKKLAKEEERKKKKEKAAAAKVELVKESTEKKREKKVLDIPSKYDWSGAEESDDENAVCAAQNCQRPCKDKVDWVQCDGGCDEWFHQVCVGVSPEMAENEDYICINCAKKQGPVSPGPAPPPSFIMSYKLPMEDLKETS

What does the source list for `Cc1ccc(-n2sc3ccccc3c2=O)cc1` [PBIT, 2-4(4-methylphenyl)-1,2-benzisothiazol-3(2H)-one]?
JARID1B overexpression-induced decrease of H3K4me3 [1]: prevented; also recorded: decrease was blocked; JARID1A demethylase activity (JARID1A; compound 10 μM, 64 nM bio-H3K4me3 peptide): inhibited; IC50 (JARID1A; dose response, 50 μM Fe (II), read-out: IC50 against JARID1A): 6 µM and ~6 µM; cell proliferation (WST-1) [2]: killed most; IC50 (JMJD2E): 28 µM
